One experiment has as its system Aβ production. Put plainly: Cellular Aβ IC50 determination (Aβ40 sandwich ELISA). In kind it is cell-based. As to conditions: Cricetulus griseus, Chinese hamster ovary cells over-expressing human APP695 with London and Swedish mutations, 24 h. The method, then: The potency of compounds against memapsin 2 activity was determined in a cellular assay of Aβ production. […] Chinese hamster ovary cells that over-express human APP695 with the London and Swedish mutations were seeded in multi-well plates at 10% confluency. Compounds were dissolved in DMSO to concentrations near 1 mM, and diluted into culture media to a final concentration near 4 μM (final 0.4% DMSO). Compounds were diluted serially and applied to cells in multi-well plates 48 h after seeding. Incubation was continued in 5% CO2 at 37 degrees C. for 24 h. Aliquots were removed and assayed for Aβ40 content using a sandwich ELISA (BioSource International). Amount of Aβ40 over the range of concentration of compounds, relative to control incubations, were fit to a 4-parameter IC50 model.

The target in another experiment is memapsin 2 (Homo sapiens, UniProt P56817). As to the kind of experiment: Inhibition of memapsin 2 beta-secretase activity toward fluorogenic substrate FS-2. In kind it is biochemical. As to conditions: pH 4, 37° C., 20 minutes pre-incubation, substrate FS-2, tight-binding model; read-out: M2 Ki. The method, then: Potency of compounds were determined by measurement of their inhibition of memapsin 2 activity toward a fluorescent substrate. […] Briefly, assays were performed at pH 4, 37° C., by pre-incubation of memapsin 2 enzyme with compound for 20 minutes. Activity measure was initiated by addition of a fluorogenic substrate FS-2 (Bachem Americas, Torrance, Calif.). Fluorescent signal increase over time was measured as a rate of hydrolysis of the peptide substrate.
Sequence of memapsin 2 (P56817 46-501): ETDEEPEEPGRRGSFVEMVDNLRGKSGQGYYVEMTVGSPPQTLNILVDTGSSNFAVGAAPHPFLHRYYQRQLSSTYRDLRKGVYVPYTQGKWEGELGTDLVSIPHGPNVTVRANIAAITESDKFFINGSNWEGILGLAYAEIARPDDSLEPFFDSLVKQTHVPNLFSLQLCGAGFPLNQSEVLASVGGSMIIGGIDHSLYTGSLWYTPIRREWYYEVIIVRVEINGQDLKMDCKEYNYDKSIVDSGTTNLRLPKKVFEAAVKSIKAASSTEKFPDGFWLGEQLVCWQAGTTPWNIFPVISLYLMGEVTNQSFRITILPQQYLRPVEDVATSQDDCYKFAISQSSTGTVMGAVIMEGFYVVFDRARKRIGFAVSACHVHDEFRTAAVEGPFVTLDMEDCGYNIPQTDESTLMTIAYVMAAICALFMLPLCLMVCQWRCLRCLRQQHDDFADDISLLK

For a further experiment, the target named is T1, memapsin 1 (Homo sapiens, UniProt Q9Y5Z0).
T1 sequence (Q9Y5Z0 63-518): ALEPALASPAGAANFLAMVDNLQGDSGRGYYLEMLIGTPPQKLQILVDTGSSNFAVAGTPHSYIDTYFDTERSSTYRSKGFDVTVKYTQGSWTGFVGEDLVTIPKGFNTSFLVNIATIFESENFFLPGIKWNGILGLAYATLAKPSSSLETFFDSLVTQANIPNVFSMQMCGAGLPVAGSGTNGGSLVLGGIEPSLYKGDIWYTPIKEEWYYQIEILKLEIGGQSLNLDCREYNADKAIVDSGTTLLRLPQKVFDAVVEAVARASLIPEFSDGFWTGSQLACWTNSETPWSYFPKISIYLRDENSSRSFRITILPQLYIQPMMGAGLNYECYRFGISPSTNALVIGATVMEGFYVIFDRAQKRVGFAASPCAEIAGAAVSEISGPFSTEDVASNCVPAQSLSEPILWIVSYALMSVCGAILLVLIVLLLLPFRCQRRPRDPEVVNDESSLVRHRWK
As to the kind of experiment: Inhibition of memapsin 1 beta-secretase activity (substrate peptide […], MALDI-TOF). The settings on record: pH 4.1, 37 degrees C., substrate NH3-ELDLAVEFWHDR-CO2, MALDI-TOF; read-out: M1 Ki. In kind it is biochemical.

The target of the next experiment is Cathepsin D (Homo sapiens, UniProt P07339). Put plainly: Inhibition of cathepsin D activity (substrate peptide […], MALDI-TOF). In kind it is biochemical. As to conditions: pH 4.1, 37 degrees C., substrate NH3-[…]-CO2, MALDI-TOF; read-out: Cath D Ki.
Sequence of Cathepsin D (P07339 65-412, species assumed): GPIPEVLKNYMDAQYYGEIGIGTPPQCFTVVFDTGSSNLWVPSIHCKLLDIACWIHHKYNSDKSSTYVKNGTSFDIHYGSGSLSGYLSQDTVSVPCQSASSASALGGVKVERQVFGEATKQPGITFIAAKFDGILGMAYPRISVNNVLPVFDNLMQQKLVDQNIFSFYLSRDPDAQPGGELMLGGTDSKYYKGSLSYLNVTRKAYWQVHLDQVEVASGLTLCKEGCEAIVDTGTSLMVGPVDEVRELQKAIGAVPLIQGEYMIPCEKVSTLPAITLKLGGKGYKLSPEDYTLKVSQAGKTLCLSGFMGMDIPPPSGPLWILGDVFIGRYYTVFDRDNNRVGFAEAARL

This note sets out measurements from patent US7335632B2, “Beta-secretase inhibitors and methods of use thereof” (CoMentis, Inc., priority 2001, dated 2008).

A word on the IC50: it is the point on the concentration scale where inhibition reaches its midpoint. A higher IC50 goes with a need for much substance. By Ki is commonly meant a measure of affinity in units of concentration, obtained from inhibition or displacement.

Bounds are passed on as bounds.

`CC[C@@H](Cn1nc(C)cc1C)C(=O)N[C@@H](CSC)C(=O)N[C@H](CC(C)C)[C@@H](O)C[C@@H](C)C(=O)N[C@@H](C(=O)NCC(C)C)C(C)C` [Structure 3]: the IC50 in the experiment on Aβ production was under 6 µM. The Ki at memapsin 2 is under 0.1 µM; on memapsin 1, 0.1 to 1 µM; at Cathepsin D, under 0.1 µM.
In turn, `CSC[C@H](NC(=O)CCn1nc(C)cc1C)C(=O)N[C@H](CC(C)C)[C@@H](O)C[C@@H](C)C(=O)N[C@@H](C(=O)NCC(C)C)C(C)C` [Structure 4] returned an IC50 in the experiment on Aβ production of 6 to 100 µM. Besides, the figures for the Ki on memapsin 2, at memapsin 1 and at Cathepsin D were 0.1 to 1 µM, 0.1 to 1 µM and under 0.1 µM, respectively.
In turn, `Cc1cc(C)n(CCC(=O)N[C@@H](CS(C)(=O)=O)C(=O)N[C@@H](CC(C)C)[C@@H](O)C[C@@H](C)C(=O)N[C@@H](C(=O)NCC(C)C)C(C)C)n1` [Structure 5] showed an IC50 in the experiment on Aβ production of over 100 µM. Moreover, the Ki at memapsin 2 is under 0.1 µM; at memapsin 1 it was 0.1 to 1 µM; on Cathepsin D, 0.1 to 1 µM.
With `CC[C@@H](Cn1nc(C)cc1C)C(=O)N[C@@H](CS(C)(=O)=O)C(=O)N[C@@H](CC(C)C)[C@@H](O)C[C@@H](C)C(=O)N[C@@H](C(=O)NCC(C)C)C(C)C` [Structure 7], in the experiment on Aβ production, the IC50 was over 100 µM. Also, the Ki at memapsin 2, on memapsin 1 and at Cathepsin D was under 0.1 µM in each case.
In the experiment on Aβ production, `CC[C@@H](Cn1nc(C)cc1C)C(=O)N[C@@H](C[S+](C)[O-])C(=O)N[C@@H](CC(C)C)[C@@H](O)C[C@@H](C)C(=O)N[C@@H](C(=O)NCC(C)C)C(C)C` (stereo partly drawn) [Structure 8] yielded an IC50 of under 6 µM. Besides, the figures for the Ki on memapsin 2, at memapsin 1 and on Cathepsin D were under 0.1 µM, under 0.1 µM and 0.1 to 1 µM, respectively.
The compound `Cc1cc(C)n(COC(=O)N[C@@H](C[S+](C)[O-])C(=O)N[C@@H](CC(C)C)[C@@H](O)C[C@@H](C)C(=O)N[C@H](C(=O)NCC(C)C)C(C)C)n1` (stereo partly drawn) [Structure 9] showed an IC50 in the experiment with Aβ production of under 6 µM. Moreover, the Ki on memapsin 2 was under 0.1 µM; on memapsin 1 it was under 0.1 µM; on Cathepsin D, 0.1 to 1 µM.
On to `Cc1csc(COC(=O)N[C@@H](CS(C)(=O)=O)C(=O)N[C@H](CC(C)C)[C@@H](O)C[C@@H](C)C(=O)N[C@@H](C(=O)NCC(C)C)C(C)C)n1` [Structure 16], for which the IC50 in the experiment on Aβ production fell in the range of 6 to 100 µM. For the same compound, the Ki on memapsin 2 is under 0.1 µM; at memapsin 1, 0.1 to 1 µM; on Cathepsin D, 0.1 to 1 µM.
`CSC[C@H](NC(=O)OCc1nc(C)cs1)C(=O)N[C@H](CC(C)C)[C@@H](O)C[C@@H](C)C(=O)N[C@@H](C(=O)NCC(C)C)C(C)C` [Structure 17]: the IC50 in the experiment on Aβ production was 6 to 100 µM. In addition, the Ki on memapsin 2 is under 0.1 µM; at memapsin 1, 0.1 to 1 µM; at Cathepsin D, under 0.1 µM.
Compound `C=CCS(=O)(=O)C[C@H](NC(=O)CCn1nc(C)cc1C)C(=O)N[C@H](CC(C)C)[C@@H](O)C[C@@H](C)C(=O)N[C@@H](C(=O)NCC(C)C)C(C)C` [Structure 18] came in with an IC50 in the experiment on Aβ production of over 100 µM. Besides, the Ki at memapsin 2, at memapsin 1 and on Cathepsin D was under 0.1 µM throughout.
For `CCSC[C@H](NC(=O)OCc1nc(C)cs1)C(=O)N[C@H](CC(C)C)[C@@H](O)C[C@@H](C)C(=O)N[C@@H](C(=O)NCC(C)C)C(C)C` [Structure 19], the IC50 in the experiment on Aβ production is over 100 µM. Moreover, the Ki at memapsin 2, at memapsin 1 and on Cathepsin D was under 0.1 µM throughout.
The compound `CCS(=O)(=O)C[C@H](NC(=O)OCc1nc(C)cs1)C(=O)N[C@H](CC(C)C)[C@@H](O)C[C@@H](C)C(=O)N[C@@H](C(=O)NCC(C)C)C(C)C` [Structure 22] yielded an IC50 in the experiment with Aβ production of under 6 µM. Also, the inhibitory constant (Ki) is under 0.1 µM at memapsin 2, 0.1 to 1 µM on memapsin 1 and 0.1 to 1 µM on Cathepsin D.
As to `CSC[C@H](NC(=O)OCc1nc(C)oc1C)C(=O)N[C@H](CC(C)C)[C@@H](O)C[C@@H](C)C(=O)N[C@@H](C(=O)NCC(C)C)C(C)C` [Structure 29], the IC50 in the experiment with Aβ production is under 6 µM. For the same compound, the Ki at memapsin 2 was under 0.1 µM; on memapsin 1, 0.1 to 1 µM; at Cathepsin D it was under 0.1 µM.
Regarding `COCCOCS(=O)(=O)C[C@H](NC(=O)OCc1nc(C)cs1)C(=O)N[C@H](CC(C)C)[C@@H](O)C[C@@H](C)C(=O)N[C@@H](C(=O)NCC(C)C)C(C)C` [Structure 30], the IC50 with Aβ production was under 6 µM. The figures for the Ki at memapsin 2, at memapsin 1 and at Cathepsin D were under 0.1 µM, 0.1 to 1 µM and 0.1 to 1 µM, respectively.
In the case of `Cc1csc(COC(=O)N[C@@H](CS(=O)(=O)C(C)C)C(=O)N[C@H](CC(C)C)[C@@H](O)C[C@@H](C)C(=O)N[C@@H](C(=O)NCC(C)C)C(C)C)n1` [Structure 31], in the experiment with Aβ production, the IC50 lay within 6 to 100 µM. Moreover, the Ki was under 0.1 µM on memapsin 2, 0.1 to 1 µM on memapsin 1 and 0.1 to 1 µM at Cathepsin D.
`Cc1csc(COC(=O)N[C@@H](CSC(C)C)C(=O)N[C@H](CC(C)C)[C@@H](O)C[C@@H](C)C(=O)N[C@@H](C(=O)NCC(C)C)C(C)C)n1` [Structure 32] had a half-inhibitory concentration (IC50) in the experiment with Aβ production of under 6 µM. The Ki on memapsin 2 was under 0.1 µM; on memapsin 1 it was 0.1 to 1 µM; on Cathepsin D, under 0.1 µM.
`CSC[C@H](NC(=O)C(C)Cc1nc(C)cs1)C(=O)N[C@H](CC(C)C)[C@@H](O)C[C@@H](C)C(=O)N[C@@H](C(=O)NCC(C)C)C(C)C` (stereo partly drawn) [Structure 34] came in with a 50% inhibitory concentration (IC50) in the experiment on Aβ production of under 6 µM. Moreover, the Ki was under 0.1 µM at memapsin 2, 0.1 to 1 µM on memapsin 1 and under 0.1 µM at Cathepsin D.
Take `CSC[C@H](NC(=O)OCc1nc(C)oc1C)C(=O)N[C@H](CC(C)C)[C@@H](O)C[C@@H](C)C(=O)N[C@@H](C(=O)OCc1ccccc1)C(C)C` [Structure 84]: the Ki on memapsin 2 was over 1 µM; at memapsin 1, over 1 µM; on Cathepsin D, 0.1 to 1 µM.
Regarding `Cc1nc(COC(=O)N[C@@H](CS(C)(=O)=O)C(=O)N[C@H](CC(C)C)[C@@H](O)C[C@@H](C)C(=O)N[C@@H](C(=O)OCc2ccccc2)C(C)C)c(C)o1` [Structure 85], the inhibition constant (Ki) at memapsin 2, at memapsin 1 and at Cathepsin D was 0.1 to 1 µM in each case.
Consider `Cc1nc(COC(=O)N[C@@H](CS(C)(=O)=O)C(=O)N[C@H](CC(C)C)[C@@H](O)C[C@@H](C)C(=O)N[C@@H](C(=O)NCc2cccnc2)C(C)C)c(C)o1` [Structure 87], for which the results for the Ki at memapsin 2, at memapsin 1 and at Cathepsin D were under 0.1 µM, under 0.1 µM and 0.1 to 1 µM, respectively.
Turning to `CC[C@H](C[C@H](O)[C@@H](CC(C)C)NC(=O)[C@H](CSC)NC(=O)OCc1nc(C)oc1C)C(=O)N[C@@H](C(=O)NCC(C)C)C(C)C` [Structure 89], the inhibitory constant (Ki) at memapsin 2 is under 0.1 µM; at memapsin 1, 0.1 to 1 µM; at Cathepsin D, under 0.1 µM.
Take `CSC[C@H](NC(=O)OCc1nc(C)cs1)C(=O)N[C@H](CC(C)C)[C@@H](O)C[C@@H](C)C(=O)N[C@@H](C(N)=O)C(C)C` [Structure 90]: in the experiment with Aβ production, the IC50 is under 6 µM. For the same compound, the Ki at memapsin 2 is over 1 µM.
In the experiment with Aβ production, `Cc1nc(COC(=O)N[C@@H](CS(C)(=O)=O)C(=O)N[C@H](CC(C)C)[C@@H](O)C[C@@H](C)C(=O)N[C@@H](C(=O)NCc2ccccn2)C(C)C)c(C)o1` [Structure 91] came in with an IC50 of over 100 µM. The Ki on memapsin 2 was under 0.1 µM.
With `CC[C@H](C[C@H](O)[C@@H](CC(C)C)NC(=O)[C@H](CS(C)(=O)=O)NC(=O)OCc1nc(C)oc1C)C(=O)N[C@@H](C(=O)NCC(C)C)C(C)C` [Structure 92], in the experiment with Aβ production, the concentration for half-maximal inhibition (IC50) was under 6 µM.
Take `CSC[C@H](NC(=O)OCc1nc(C)oc1C)C(=O)N[C@@H](CC(C)C)[C@@H](O)C[C@@H](C)C(=O)N[C@H](C(=O)Nc1nccs1)C(C)C` [Structure 96]: the results for the Ki on memapsin 2, at memapsin 1 and on Cathepsin D were 0.1 to 1 µM, 0.1 to 1 µM and under 0.1 µM, respectively.
`CSC[C@H](NC(=O)[C@@H](C)Cc1nc(C)oc1C)C(=O)N[C@@H](CC(C)C)[C@@H](O)C[C@@H](C)C(=O)N[C@H](C(=O)NCC(C)C)C(C)C` [Structure 97]: the Ki on memapsin 2 was under 0.1 µM; at memapsin 1, 0.1 to 1 µM; on Cathepsin D, under 0.1 µM.
Turning to `COc1ccc(C[C@H](NC(=O)[C@H](CS(C)(=O)=O)NC(=O)OCc2nc(C)oc2C)[C@@H](O)C[C@@H](C)C(=O)N[C@H](C(=O)NCC(C)C)C(C)C)cc1` [Structure 98], the Ki at memapsin 2 was over 1 µM; at memapsin 1, 0.1 to 1 µM; on Cathepsin D, under 0.1 µM.
